# Activity calls are given as the source filed them. The calls are words filed in the database; no cut-off is given here.
# Columns and labels:
# [1] = molecular target: T1, Phospholipid hydroperoxide glutathione peroxidase GPX4 (Homo sapiens) (UniProt P36969); assay: Induction of GPX4 degradation in human HT-1080 cells at 10 uM incubated for 24 hrs by Western blotting analysis; format: cell-based
# T1 sequence (whole entry): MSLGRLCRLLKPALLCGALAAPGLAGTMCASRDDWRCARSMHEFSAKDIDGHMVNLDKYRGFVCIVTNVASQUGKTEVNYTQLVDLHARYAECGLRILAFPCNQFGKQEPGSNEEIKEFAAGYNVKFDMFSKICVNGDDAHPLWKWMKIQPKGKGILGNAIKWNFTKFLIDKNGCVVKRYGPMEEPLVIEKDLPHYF
# [2] = molecular target: T1, Phospholipid hydroperoxide glutathione peroxidase GPX4 (Homo sapiens); assay: Induction of GPX4 degradation in human HT-1080 cells at 0.1 uM incubated for 6 hrs relative to control; format: cell-based
# [3] = molecular target: T1, Phospholipid hydroperoxide glutathione peroxidase GPX4 (Homo sapiens); assay: Induction of GPX4 degradation in human HT-1080 cells at 10 uM incubated for 24 hrs relative to control; format: cell-based
# [4] = molecular target: T1, Phospholipid hydroperoxide glutathione peroxidase GPX4 (Homo sapiens); assay: Induction of GPX4 degradation in human HT-1080 cells at 10 nM incubated for 24 hrs relative to control; format: cell-based
# [5] = Antiproliferative activity against human HEK293T cells incubated for 24 hrs; format: toxicity, cell-based, HEK-293T
# HT-1080 [6] = assay: Antiproliferative activity against human HT-1080 cells incubated for 24 hrs; format: functional, cell-based; conditions: HT-1080, 24 h
# HT-1080 [7] = assay: Antiproliferative activity against human HT-1080 cells at 10 uM; format: functional, cell-based
# [8] = molecular target: T1, Phospholipid hydroperoxide glutathione peroxidase GPX4 (Homo sapiens); assay: Induction of GPX4 degradation in human HT-1080 cells at 0.1 to 1 uM incubated for 24 hrs; format: cell-based; conditions: dose 0.1-1 µM
# [9] = molecular target: T1, Phospholipid hydroperoxide glutathione peroxidase GPX4 (Homo sapiens); assay: Induction of GPX4 degradation in human HT-1080 cells at 0.1 uM pretreated for 2 hrs followed by PYR41 addition and measured after 6 hrs; format: cell-based; conditions: time 8.0 hrs
# [10] = molecular target: T1, Phospholipid hydroperoxide glutathione peroxidase GPX4 (Homo sapiens); assay: Induction of GPX4 degradation in human HT-1080 cells in presence of lenalidomide; format: cell-based
# [11] = molecular target: T2, Phospholipid hydroperoxide glutathione peroxidase GPX4 (Homo sapiens, UniProt P36969); assay: Induction of GPX4 degradation in human NCI-H1650 cells incubated for 24 hrs; format: cell-based
# T2 sequence (P36969 whole entry): T1 sequence (whole entry)
# HT-1080 [12] = assay: Antiproliferative activity against human HT-1080 cells at 1 uM incubated for 24 hrs in presence of liproxstatin-1; format: functional, cell-based
# [13] = molecular target: T1, Phospholipid hydroperoxide glutathione peroxidase GPX4 (Homo sapiens); assay: Induction of GPX4 degradation in human HT-1080 cells in presence of RSL3; format: cell-based
# [14] = molecular target: T1, Phospholipid hydroperoxide glutathione peroxidase GPX4 (Homo sapiens); assay: Induction of GPX4 degradation in human HT-1080 cells at 0.1 uM pretreated for 2 hrs followed by MG132 and measured after 6 hrs; format: cell-based; conditions: time 8.0 hrs
# HT-1080 [15] = assay: Potency index, ratio of (4-(bis(4-chlorophenyl)methyl)piperazin-1-yl)(5-methyl-4-nitroisoxazol-3-yl)methanone IC50 to test compound IC50 for antiproliferative activity against human HT-1080 cells; format: functional
# [16] = molecular target: T2, Phospholipid hydroperoxide glutathione peroxidase GPX4; assay: (§1) Induction of GPX4 degradation in human HT-1080 cells incubated for 6 hrs by Western blotting analysis; format: cell-based
# [17] = molecular target: T1, Phospholipid hydroperoxide glutathione peroxidase GPX4 (Homo sapiens); assay: as §1; format: cell-based; conditions: dose 0.0001-0.1 µM
# HT-1080 [18] = assay: Potency index, ratio of methyl (1S,3R)-1-(4-acetylphenyl)-2-(2-chloroacetyl)-2,3,4,9-tetrahydro-1H-pyrido[3,4-b]indole-3-carboxylate IC50 to test compound IC50 for antiproliferative activity against human HT-1080 cells; format: functional
# [19] = molecular target: T2, Phospholipid hydroperoxide glutathione peroxidase GPX4; assay: Induction of GPX4 degradation in gefitinib resistant human NCI-H1650 cells incubated for 24 hrs; format: cell-based
# [20] = molecular target: T1, Phospholipid hydroperoxide glutathione peroxidase GPX4 (Homo sapiens); assay: Induction of GPX4 degradation in human HT-1080 cells at 0.0001 to 0.1 uM incubated for 1 hr by Western blotting analysis; format: cell-based; conditions: dose 0.0001-0.1 µM
# [21] = molecular target: T1, Phospholipid hydroperoxide glutathione peroxidase GPX4 (Homo sapiens); assay: Induction of GPX4 degradation in human HT-1080 cells at 0.0001 to 0.1 uM incubated for 24 hrs by Western blotting analysis; format: cell-based; conditions: dose 0.0001-0.1 µM
compound,measurement,setting,value
CCCCCC(=O)N1[C@@H](c2ccc(C(=O)OC)cc2)c2[nH]c3ccccc3c2C[C@@H]1C(=O)OC,Activity,[1],inactive
COC(=O)[C@H]1Cc2c([nH]c3ccccc23)[C@H](c2ccc(C(=O)N3CCN(CCCCCCCCCCCNc4cccc5c4CN(C4CCC(=O)NC4=O)C5=O)CC3)cc2)N1C(=O)CCl (stereo partly specified),Activity,[2],64%
COC(=O)[C@H]1Cc2c([nH]c3ccccc23)[C@H](c2ccc(C(=O)NCc3cn(CCOCCOCCOCCNc4cccc5c4C(=O)N(C4CCC(=O)NC4=O)C5=O)nn3)cc2)N1C(=O)CCl (stereo partly specified),Activity,[3],22%
COC(=O)[C@H]1Cc2c([nH]c3ccccc23)[C@H](c2ccc(C(=O)NCc3cn(CCOCCOCCOCCOCCOCCNc4cccc5c4CN(C4CCC(=O)NC4=O)C5=O)nn3)cc2)N1C(=O)CCl (stereo partly specified),Activity,[3],inactive
COC(=O)[C@H]1Cc2c([nH]c3ccccc23)[C@H](c2ccc(C(=O)N3CCC(N4CCN(CCCCCCCCCNc5cccc6c5CN(C5CCC(=O)NC5=O)C6=O)CC4)CC3)cc2)N1C(=O)CCl (stereo partly specified),Activity,[4],15%
CCCC(=O)N1[C@@H](c2ccc(C(=O)OC)cc2)c2[nH]c3ccccc3c2C[C@@H]1C(=O)OC,Activity,[1],inactive
COC(=O)[C@H]1Cc2c([nH]c3ccccc23)[C@H](c2ccc(C(=O)NCc3cn(CCOCCOCCOCCOCCN[C@H](C(=O)N4C[C@H](O)C[C@H]4C(=O)N[C@@H](C)c4ccc(-c5scnc5C)cc4)C(C)(C)C)nn3)cc2)N1C(=O)CCl,Activity,[3],12%
COC(=O)[C@H]1Cc2c([nH]c3ccccc23)[C@H](c2ccc(C(=O)N3CCN(CCCCCCCCCCCCCNc4cccc5c4C(=O)N(C4CCC(=O)NC4=O)C5=O)CC3)cc2)N1C(=O)CCl (stereo partly specified),Activity,[2],67%
Cc1onc(C(=O)N2CCN(C(c3ccc(Cl)cc3)c3ccc(Cl)cc3)CC2)c1[N+](=O)[O-],IC50 at 24 h,[5],430 nM
same,IC50,HT-1080 [6],410 nM
COC(=O)c1ccc([C@@H]2N[C@@H](C(=O)OC)Cc3c2[nH]c2ccccc32)cc1,Activity,[1],inactive
COC(=O)[C@H]1Cc2c([nH]c3ccccc23)[C@H](c2ccc(C(=O)NCc3cn(CCOCCOCCOCCOCCNc4cccc5c4C(=O)N(C4CCC(=O)NC4=O)C5=O)nn3)cc2)N1C(=O)CCl (stereo partly specified),Activity,[3],35%
CCC(=O)N1[C@@H](c2ccc(C(=O)N3CCN(CCCCCCCCCCCCCNc4cccc5c4CN(C4CCC(=O)NC4=O)C5=O)CC3)cc2)c2[nH]c3ccccc3c2C[C@@H]1C(=O)OC (stereo partly specified),Activity,[1],inactive
COC(=O)[C@H]1Cc2c([nH]c3ccccc23)[C@H](c2ccc(C(=O)N3CCC(CN4CCN(CCCNc5cccc6c5C(=O)N(C5CCC(=O)NC5=O)C6=O)CC4)CC3)cc2)N1C(=O)CCl (stereo partly specified),Activity,[4],3%
COC(=O)[C@H]1Cc2c([nH]c3ccccc23)[C@H](c2ccc(C(=O)NCc3cn(CCOCCOCCNc4cccc5c4CN(C4CCC(=O)NC4=O)C5=O)nn3)cc2)N1C(=O)CCl (stereo partly specified),Activity,[3],inactive
COC(=O)[C@H]1Cc2c([nH]c3ccccc23)[C@H](c2ccc(C(=O)NCc3cn(CCOCCOCCOCCOCCNc4cccc5c4CN(C4CCC(=O)NC4=O)C5=O)nn3)cc2)N1C(=O)CCl (stereo partly specified),Activity,[3],inactive
COC(=O)[C@H]1Cc2c([nH]c3ccccc23)[C@H](c2ccc(C(=O)NCc3cn(CCOCCOCCOCCNc4cccc5c4CN(C4CCC(=O)NC4=O)C5=O)nn3)cc2)N1C(=O)CCl (stereo partly specified),Activity,[3],inactive
COC(=O)[C@H]1Cc2c([nH]c3ccccc23)[C@H](c2ccc(C(=O)NCc3cn(CCOCCOCCOCCN[C@H](C(=O)N4C[C@H](O)C[C@H]4C(=O)N[C@@H](C)c4ccc(-c5scnc5C)cc4)C(C)(C)C)nn3)cc2)N1C(=O)CCl,Activity,[3],50%
same,Activity,HT-1080 [7],Active
same,Activity,[8],inactive
COC(=O)[C@H]1Cc2c([nH]c3ccccc23)[C@H](c2ccc(C(=O)N3CCN(CCCCCCCCCCCCNc4cccc5c4C(=O)N(C4CCC(=O)NC4=O)C5=O)CC3)cc2)N1C(=O)CCl (stereo partly specified),Activity,[2],56%
COC(=O)[C@H]1Cc2c([nH]c3ccccc23)[C@H](c2ccc(C(=O)NCc3cn(CCOCCOCCOCCOCCOCCN[C@H](C(=O)N4C[C@H](O)C[C@H]4C(=O)N[C@@H](C)c4ccc(-c5scnc5C)cc4)C(C)(C)C)nn3)cc2)N1C(=O)CCl,Activity,[3],11%
COC(=O)[C@H]1Cc2c([nH]c3ccccc23)[C@H](c2ccc(C(=O)N3CCC(CN4CCN(CCCCCCCCNc5cccc6c5C(=O)N(C5CCC(=O)NC5=O)C6=O)CC4)CC3)cc2)N1C(=O)CCl (stereo partly specified),Activity,[4],34%
COC(=O)[C@H]1Cc2c([nH]c3ccccc23)[C@H](c2ccc(C(=O)NCc3cn(CCOCCOCCN[C@H](C(=O)N4C[C@H](O)C[C@H]4C(=O)N[C@@H](C)c4ccc(-c5scnc5C)cc4)C(C)(C)C)nn3)cc2)N1C(=O)CCl,Activity,[3],49%
COC(=O)[C@H]1Cc2c([nH]c3ccccc23)[C@H](c2ccc(C(=O)N3CCN(CCCCCCCCCCCNc4cccc5c4C(=O)N(C4CCC(=O)NC4=O)C5=O)CC3)cc2)N1C(=O)CCl (stereo partly specified),Activity,[2],46%
COC(=O)[C@H]1Cc2c([nH]c3ccccc23)[C@H](c2ccc(C(=O)N3CCN(CCCCCCCCCCCCNc4cccc5c4CN(C4CCC(=O)NC4=O)C5=O)CC3)cc2)N1C(=O)CCl (stereo partly specified),Activity,[2],68%
COC(=O)[C@H]1Cc2c([nH]c3ccccc23)[C@H](c2ccc(C(=O)N3CCC(CN4CCN(CCCCCNc5cccc6c5C(=O)N(C5CCC(=O)NC5=O)C6=O)CC4)CC3)cc2)N1C(=O)CCl (stereo partly specified),Activity,[4],5%
COC(=O)[C@H]1Cc2c([nH]c3ccccc23)[C@H](c2ccc(C(=O)NCc3cn(CCOCCOCCNc4cccc5c4C(=O)N(C4CCC(=O)NC4=O)C5=O)nn3)cc2)N1C(=O)CCl (stereo partly specified),Activity,[3],32%
COC(=O)[C@H]1Cc2c([nH]c3ccccc23)[C@H](c2ccc(C(=O)N3CCN(CCCCCCCCCCCCCNc4cccc5c4CN(C4CCC(=O)NC4=O)C5=O)CC3)cc2)N1C(=O)CCl (stereo partly specified),Activity,[9],inactive
same,Activity,[10],Active
same,DC50,[11],17.9 nM
same,Activity,HT-1080 [12],inactive
same,IC50 at 24 h,[5],205 nM
same,Activity,[13],Active
same,IC50,HT-1080 [6],68 nM
same,Activity,[14],inactive
same,Ratio IC50,HT-1080 [15],6
same,DC50,[16],37.4 nM
same,Activity,[17],Dose-Dependent Effect
same,Ratio IC50,HT-1080 [18],2
same,DC50,[19],22.9 nM
same,Activity,[4],57%
same,Activity,[2],69%
same,Activity,[20],Active
same,Activity,[21],Active
CCC(=O)N1[C@@H](c2ccc(C(=O)OC)cc2)c2[nH]c3ccccc3c2C[C@@H]1C(=O)OC,Activity,[1],inactive
COC(=O)[C@H]1Cc2c([nH]c3ccccc23)[C@H](c2ccc(C(=O)N3CCN(CCCCCCCNc4cccc5c4CN(C4CCC(=O)NC4=O)C5=O)CC3)cc2)N1C(=O)CCl (stereo partly specified),Activity,[2],10%
COC(=O)[C@H]1Cc2c([nH]c3ccccc23)[C@H](c2ccc(C(=O)N3CCN(CCCCCCCCCCCCCCNc4cccc5c4C(=O)N(C4CCC(=O)NC4=O)C5=O)CC3)cc2)N1C(=O)CCl (stereo partly specified),Activity,[2],44%
COC(=O)[C@H]1Cc2c([nH]c3ccccc23)[C@H](c2ccc(C(=O)N3CCN(CCCCCCCCCCCCCCNc4cccc5c4CN(C4CCC(=O)NC4=O)C5=O)CC3)cc2)N1C(=O)CCl (stereo partly specified),Activity,[2],58%
COC(=O)[C@H]1Cc2c([nH]c3ccccc23)[C@H](c2ccc(C(=O)N3CCN(CCCCCCCCCNc4cccc5c4CN(C4CCC(=O)NC4=O)C5=O)CC3)cc2)N1C(=O)CCl (stereo partly specified),Activity,[2],48%
COC(=O)[C@H]1Cc2c([nH]c3ccccc23)[C@H](c2ccc(C(=O)NCc3cn(CCOCCOCCOCCOCCOCCNc4cccc5c4C(=O)N(C4CCC(=O)NC4=O)C5=O)nn3)cc2)N1C(=O)CCl (stereo partly specified),Activity,[3],15%

# Reference: ChEMBL document CHEMBL5321221, “Structure-activity relationship study of RSL3-based GPX4 degraders and its potential noncovalent optimization” (Eur J Med Chem, 2023)
